Reference: ChEMBL document CHEMBL3244259, “Synthesis and anti-herpes simplex activity of analogues of phosphonoacetic acid” (J Med Chem, 1977)
The source made the active and inactive calls. No cut-off for these calls is given here.

Key:
[1] = Inhibition of HSV type-2 DNA polymerase after 30 mins by liquid scintillation counting analysis in presence of dATP, dCTP, dGTP and [3H]-TTP; set-up: species or system Human alphaherpesvirus 2
[2] = tested on: Human alphaherpesvirus 2; assay: Antiviral activity against Human herpesvirus 2 infected in CF mouse assessed as suppression of virus-induced dermatitis administered topically as 2% aqueous solution twice daily for 6 days measured after day 17; assay type: functional, organism-based
[3] = tested on: Human alphaherpesvirus 2; assay: Antiviral activity against Human herpesvirus 2 infected in CF mouse assessed as suppression of virus-induced dermatitis at 800 mg/kg/day, po administered for 6 days measured after day 17; assay type: functional, organism-based
[4] = tested on: Human alphaherpesvirus 2; assay: Antiviral activity against Human herpesvirus 2 infected in CF mouse assessed as suppression of virus-induced dermatitis at 100 to 1000 mg/kg/day, po administered for 6 days measured after day 17; assay type: functional, organism-based

| Compound | I50 [1] [µg/mL] | Activity [2] | Activity [3] | Activity [4] |
| --- | --- | --- | --- | --- |
| COP(=O)(O)CC(=O)O | 19.9 |  |  |  |
| O=C(O)CP(=O)(O)c1ccccc1 | 200 | inactive | inactive |  |
| CC(C)(C)OC(=O)CP(=O)(O)O | 3.9 |  |  |  |
| CCCCCCOP(=O)(O)CC(=O)O |  | Active | Active |  |
| CCCCCCCCOC(=O)CP(=O)(O)O | 0.26 |  |  |  |
| COc1ccc(P(=O)(O)CC(=O)O)cc1 | 150 | inactive | inactive |  |
| O=C(CP(=O)(O)O)OC1CCCCC1 | 49 |  |  |  |
| O=C(CP(=O)(O)O)OCc1ccccc1 | 40 |  |  |  |
| CP(=O)(O)CC(=O)O | 145 | inactive |  |  |
| CCCOC(=O)CP(=O)(O)O | 0.16 | Active |  | Active |
| O=C(O)CP(=O)([O-])[O-].[Na+].[Na+] [DISODIUM CARBOXYMETHYLPHOSPHONATE] | 0.22 |  |  |  |
| CCCOP(=O)(O)CC(=O)O | 200 |  |  |  |
